The values below come from patent US20250249010A1, “METHODS FOR TREATING PRIMARY MEMBRANOUS NEPHROPATHY” (BEIGENE SWITZERLAND GMBH, priority 2022, published 2025).

In one data set the test system is CYP3A4. Nature of the data set: Clinical drug-drug interaction study (Study BGB-3111-108), CYP3A4. The format is in vivo. Conditions: clinical drug-drug interaction study BGB-3111-108.
For data set [1], the system named is patients with B-cell malignancies. Conditions: 320 mg per day (160 mg twice a day); cited from earlier work.
The subject of another data set is CYP2C19. Nature of the data set: Clinical drug-drug interaction study (Study BGB-3111-108), CYP2C19. The data set is classed as in vivo. The conditions noted are these: clinical drug-drug interaction study BGB-3111-108.

Molecules are shown by their SMILES.

`C=CC(=O)N1CCC([C@@H]2CCNc3c(C(N)=O)c(-c4ccc(Oc5ccccc5)cc4)nn32)CC1` [zanubrutinib, (S)-7-(1-acryloylpiperidin-4-yl)-2-(4-phenoxyphenyl)-4,5,6,7-tetrahydropyrazolo[1,5-a]pyrimidine-3-carboxamide]: the CYP3A4 induction result in the data set with CYP3A4 is given as “mild inducer”. For the same compound, in data set [1], the “efficacy in patients with B-cell malignancies” value is given as “efficacious” and the “tolerability in patients with B-cell malignancies” value was “well tolerated”. Moreover, the CYP2C19 induction result in the data set with CYP2C19 is on record as “mild inducer”.
